Data on one compound can be found in patent US11407724B2, “Process for the production of cannabinoids” (Bessor Pharma, LLC, priority 2018, dated 2022).

The subject of this assay is TRPV 1 channels. As to the kind of experiment: Calcium assay (Fluo-4) in HEK-TRPV1 cells, dose response comparison. The format is cell-based. To be noted: Fluo-4 loaded, 1 mM external calcium chloride, 0-20 seconds baseline, compound added at 20 seconds, synthesized vs Sigma-sourced CBD (FIGS. 1A-1D). As for the experimental part:
Molecular Pharmacology, 2016, volume 90, pages 300-308) HEK 293 cells with TRPV1 channels have been used as model systems (P. Geppetti and M. Trevisani, Activation and sensitisation of the vanilloid receptor: role in gastrointestinal inflammation and function, British Journal of Pharmacology, 2004, volume 141, pages 1313-1320);
HEK TRexTRPV1 cultured in DMEM, 10% Fetal Bovine Serum, 2 mM L-glutamine, 10 microgramg/ml Blasticidin (Calbiochem, San Diego Calif.), […] Zeocin (InvivoGen, San Diego Calif.), followed by inducing indicated transgene expression using 1 microgram/ml Tetracycline for 16-24 hrs. Comparisons made to untransfected HEK cells or HEKTRexTRPV1 with or without induction.
Cells washed and incubated with 0.2 micromolar Fluo-4 [54] for 30 minutes at 37° C. in a standard modified Ringer's solution of the following composition (in mM): NaCl 145, KCl 2.8, CsCl 10, CaCl2 10, MgCl2 2, glucose 10, Hepes-NaOH 10, pH 7.4, 330 mOsm. Cells transferred to 96-well plates at 50,000 cells/well and stimulated as indicated. Calcium signals acquired using a Flexstation 3 (Molecular Devices, Sunnydale, USA). Data are analyzed according to the methods in I. Díaz-Franulic, J. Caceres-Molina, R. V. Sepulveda, F. Gonzalez-Nilo, R. Latorre, Structure-Driven Pharmacology of Transient Receptor Potential Channel Vanilloid 1, Molecular Pharmacology, 2016, volume 90, pages 300-8. […]

Regarding `C=C(C)[C@@H]1CCC(C)=C[C@H]1c1c(O)cc(CCCCC)cc1O` [cannabidiol (11, CBD), Cannabidiol], the ““biological finger print” and dose response on TRPV 1 channels” value is “the same “biological finger print” and dose response”.
